In article PMC4648803 (Purinergic Signalling, 2015):
“And” between values parts separate entries of the source, which are not always exact repeats. Equal entries are not always repeated. One block for each molecule: values may come before it.

What was measured:
[1] = molecular target: T1, hA1AR (Homo sapiens, UniProt P30542); test: MS binding competition association assay (marker ligand DPCPX); design: expressed in transfected cells; host or cells: CHO cells stably expressing hA1AR (membrane preparation); gift from Prof; S. Hill, University of Nottingham; details: for shape of competition association curve: 6 nM DPCPX, 250 nM competing ligand
T1 sequence (P30542 1-326): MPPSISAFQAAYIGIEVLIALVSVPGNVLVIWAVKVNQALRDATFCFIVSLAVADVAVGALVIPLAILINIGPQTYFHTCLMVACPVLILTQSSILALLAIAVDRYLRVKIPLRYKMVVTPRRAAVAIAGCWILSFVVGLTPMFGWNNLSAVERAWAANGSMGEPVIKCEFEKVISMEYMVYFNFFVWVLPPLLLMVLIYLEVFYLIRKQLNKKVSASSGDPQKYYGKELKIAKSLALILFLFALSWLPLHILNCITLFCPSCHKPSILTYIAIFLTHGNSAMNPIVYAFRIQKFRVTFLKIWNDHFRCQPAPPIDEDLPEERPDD
Description: . […] Non-specific binding was determined as described under “MS binding displacement assays.”

[2] = molecular target: T1, hA1AR; design: expressed in transfected cells; host or cells: CHO cells stably expressing hA1AR (membrane preparation); gift from Prof; S. Hill, University of Nottingham; method as in PMID 23093571; details: competition association, apparent value; cited from earlier work
[3] = molecular target: T2, hA2AAR (Homo sapiens, UniProt P29274); test: Radioligand binding competition association assay; details: newly acquired
T2 construct: expressed in transfected cells; host or cells: HEK293 cells stably expressing hA2AAR (membrane preparation); gift from Dr. J. Wang, Biogen/IDEC
Description: (§1) The reference radioligand binding data were published before by our lab or were acquired as described before.
(§2) For the validation of MS binding assays, radioligand binding data that was published previously by our group was used. In the case that no in-house radioligand binding data was available, the concerning assays were performed following previously established protocols.

[4] = molecular target: T2, hA2AAR; test: MS binding competition association assay (marker ligand ZM-241,385)
[5] = molecular target: T2, hA2AAR; test: Radioligand binding displacement assay; details: newly acquired, read-out: K i ± SEM, Radioligand binding
Description: as §1, §2

[6] = molecular target: T2, hA2AAR; test: MS binding displacement assay (marker ligand ZM-241,385); details: 3 nM ZM-241,385 marker, read-out: K i ± SEM, MS binding
Description: (§3) Ligand displacement experiments were performed using nine concentrations of competing ligand.

[7] = molecular target: T1, hA1AR; details: saturation on CHO-hA1AR membranes, M/IS
Description: Dilutions were prepared with a HP D300 Digital Dispenser (Tecan Group, Männerdorf, Swiss) from DMSO stocks.

[8] = molecular target: T1, hA1AR; details: saturation on hA1AR; cited from earlier work
[9] = molecular target: T1, hA1AR; test: biochemical; details: K i ± SEM, Radioligand binding, overall (one-state) value, newly acquired
Description: as §1, §2

[10] = molecular target: T1, hA1AR; test: Radioligand binding competition association assay; design: expressed in transfected cells; host or cells: CHO cells stably expressing hA1AR (membrane preparation); gift from Prof; S. Hill, University of Nottingham; details: newly acquired
Description: as §1, §2

[11] = molecular target: T1, hA1AR; test: biochemical; details: K i ± SEM, MS binding, 6 nM DPCPX marker, overall (one-state) value
Description: as §3

[12] = competition association with 3 nM ZM-241,385, with internal standard
[13] = competition association with 3 nM ZM-241,385, without internal standard

T2 sequence (P29274 whole entry): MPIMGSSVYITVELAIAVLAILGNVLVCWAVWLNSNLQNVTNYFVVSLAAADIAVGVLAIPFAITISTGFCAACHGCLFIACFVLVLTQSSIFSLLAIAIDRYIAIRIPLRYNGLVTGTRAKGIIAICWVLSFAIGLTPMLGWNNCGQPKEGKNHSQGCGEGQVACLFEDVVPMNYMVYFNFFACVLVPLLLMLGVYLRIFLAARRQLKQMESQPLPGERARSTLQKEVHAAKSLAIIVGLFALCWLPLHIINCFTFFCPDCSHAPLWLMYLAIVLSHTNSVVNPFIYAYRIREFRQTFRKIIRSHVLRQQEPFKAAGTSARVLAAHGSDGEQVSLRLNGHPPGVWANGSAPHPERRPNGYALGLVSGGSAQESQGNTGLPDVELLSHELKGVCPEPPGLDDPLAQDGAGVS

Compound: CCCn1c(=O)c2[nH]c(C3CCCC3)nc2n(CCCOC(=O)c2ccc(S(=O)(=O)F)cc2)c1=O [FSCPX]
- shape of competition association curve ([1]; hA1AR): typical for slowly dissociating ligands
- displacement of the marker ligand DPCPX ([1]; hA1AR, 250 nM FSCPX, after 120 min): completely
- k on ± SEM, MS binding (M/IS) ([1]; hA1AR, competition association with 6 nM DPCPX, with internal standard, apparent value for covalently binding FSCPX): 0.7 ± 0.2 × 10^6 M^−1 min^−1
- k on ± SEM, MS binding (marker) ([1]; hA1AR, competition association with 6 nM DPCPX, without internal standard, apparent value for FSCPX): 0.7 ± 0.2 × 10^6 M^−1 min^−1
- k on ± SEM, Radioligand binding [2]: 3.7 ± 1.0 × 10^6 [29] M^−1 min^−1

Compound: C#CCn1c(=O)c2c(nc(C=Cc3cccc(OC)c3)n2C)n(CCCO)c1=O [MSX-2, 3-(3-Hydroxypropyl)-7-methyl-1-propargyl-8-(m-methoxystryryl)xanthine]
- k off ± SEM, Radioligand binding [3]: 0.000433 ± 6.7e-05 s⁻¹
- k on ± SEM, Radioligand binding [3]: 2.4 ± 0.2 × 10^6 M^−1 min^-1
- shape of competition association curve ([4]; 3 nM ZM-241,385, 90 nM MSX-2 or 15 nM LUF6632): typical for fast-dissociating ligands
- k off ± SEM, MS binding (M/IS) [4, 12]: 0.00045 ± 8.3e-05 s⁻¹
- k on ± SEM, MS binding (M/IS) [4, 12]: 5.4 ± 0.6 × 10^6 M^−1 min^-1
- k off ± SEM, MS binding (marker) [4, 13]: 0.00105 ± 0.000367 s⁻¹
- k on ± SEM, MS binding (marker) [4, 13]: 9.3 ± 1.3 × 10^6 M^−1 min^-1
- Ki [5]: 5.7 ± 0.1 nM
- Ki [6]: 9 ± 0.3 nM

- B max, MS binding [7]: 17.3 ± 0.3 pmol/mg protein
Compound: CCCn1c(=O)c2[nH]c(C3CCCC3)nc2n(CCC)c1=O [DPCPX, 1,3-dipropyl-8-cyclopentyl-xanthine]
- B max, Radioligand binding [8]: 14 ± 1 pmol/mg protein and 14 ± 1 [29] pmol/mg protein

- shape of competition association curve ([1]; hA1AR): typical for fast-dissociating ligands
- koff ([1]; read-out: k off ± SEM, MS binding (M/IS) (converted)): 0.0233 s⁻¹
- koff ([1]; read-out: k off ± SEM, MS binding (marker) (converted)): 0.02 s⁻¹
- kon ([1]; read-out: k on ± SEM, MS binding (M/IS) (converted)): 833000 M⁻¹ s⁻¹
- kon ([1]; read-out: k on ± SEM, MS binding (marker) (converted)): 500000 M⁻¹ s⁻¹
- Ki [9]: 31 ± 1 nM
- koff ([10]; read-out: k off ± SEM, Radioligand binding (converted)): 0.0183 s⁻¹
- kon ([10]; read-out: k on ± SEM, Radioligand binding (converted)): 1e+06 M⁻¹ s⁻¹
- Ki [11]: 43 ± 11 nM
Compound: Cn1c(=O)c2[nH]c(C3CCCC3)nc2n(C)c1=O [8-CPT, 8-Cyclopentyltheophylline]
